Assay results from article PMC4521150, “Discovery of Novel Inhibitors and Fluorescent Probe Targeting NAMPT” (Scientific Reports, 2015).

These molecules were tested against T1, recombinant human NAMPT (Homo sapiens, UniProt P43490) (assay: HTS / fixed-concentration NAMPT activity screen (fluorometric)). Details: 20 μM compound; analogues of the 46 non-fluorescent inhibitors.
T1 construct: His tag (N); made in house; host or cells: E. coli BL21-CodonPlus (DE3)-RIL, pET21a+ vector
T1 sequence (P43490 whole entry): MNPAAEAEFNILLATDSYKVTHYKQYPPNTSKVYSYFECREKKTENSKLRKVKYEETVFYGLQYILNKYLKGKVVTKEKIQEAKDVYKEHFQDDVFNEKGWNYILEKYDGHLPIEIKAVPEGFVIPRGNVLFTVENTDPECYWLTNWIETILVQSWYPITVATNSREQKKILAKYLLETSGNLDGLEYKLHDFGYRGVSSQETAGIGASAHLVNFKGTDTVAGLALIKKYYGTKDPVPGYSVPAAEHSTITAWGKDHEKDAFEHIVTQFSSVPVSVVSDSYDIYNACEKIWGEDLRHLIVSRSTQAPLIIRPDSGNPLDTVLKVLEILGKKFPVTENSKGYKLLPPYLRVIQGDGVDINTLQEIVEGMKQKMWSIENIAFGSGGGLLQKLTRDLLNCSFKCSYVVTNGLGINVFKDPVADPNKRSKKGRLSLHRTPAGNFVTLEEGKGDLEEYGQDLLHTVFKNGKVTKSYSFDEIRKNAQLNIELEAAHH
Type: biochemical
Description: Using our previously established high throughput screening (HTS) platform and recombinant human NAMPT[14][15], we performed a HTS on a chemical library containing 30000 small-molecules (Chemdiv, CA, USA). Our HTS targeting NAMPT was developed based on a fluorometric method for NAMPT activity assay by measuring the fluorescence of nicotinamide mononucleotide (NMN) derivative resulting from the NAMPT enzymatic product NMN through simple chemical reactions (Fig. 1A). The 30000 compounds were dissolved with dimethyl sulfoxide (DMSO); most of compounds were soluble at 10 mM stock solution (94.1%), some compounds insoluble at 10 mM were soluble at 2.5 mM stock solution (4.4%), and the remaining compounds insoluble at 2.5 mM (1.5%) were diluted further during HTS experiments (Fig. 1B). To guarantee the quality of screening, S/N ratio, CV and Z’ factors were monitored throughout the screenings, and all three indices met the requirements of HTS (Fig. 1C–E). After a primary screen and a secondary screen of all compounds at 20 μM, 242 compounds were selected as the hits of NAMPT inhibitors (NAMPT activity < 40%), and the hit rate was ~0.8% (Fig. 1F). […] All these 55 compounds were not reported as NAMPT inhibitors previously. Among the 55 compounds, we noted 46 compounds were non-fluorescent and 9 compounds were fluorescent (Fig. 1F). These fluorescent and non-fluorescent compounds were further studied separately.
HTS was performed using our previously reported method. 0.5 μl stock of each compound (1 mM DMSO stock) was transferred to a 96-well PCR plate for screening. In the primary screening, 5 ng NAMPT in 20 μl reaction buffer [0.4 mM phosphoribosylpyrophosphate (PRPP, Sigma), 2 mM ATP, 0.02% BSA, 2 mM DTT, 12 mM MgCl2 and 50 mM Tris-HCl (pH = 7.5)] was added into each well, the plate was incubated at 37 °C for 5 min, then 4.5 μl substrate of NAM was added to initiate the enzyme reaction, resulting in a final concentration of 2% DMSO, 2 μg/ml NAMPT, 0.2 μM NAM and 20 μM compound. After reacting at 37 °C for 15 min, the enzyme reaction was terminated by heating at 95 °C for 1 min and cooling in an ice bath. The product of NMN was detected through the following approach: after adding 10 μl 20% acetophenone in DMSO and 10 μl 2 M KOH into each well, the mixture was vortex-mixed and kept in ice bath for 2 min. Then 45 μl 88% formic acid was added and the mixture was incubated at 37 °C for 10 min. Finally, 85 μl mixtures in each well were transferred into a flat-bottom 96-well black plate (Greiner), and the fluorescence (F) was measured using a Tecan Infinity M200 plate reader (Tecan Group Ltd.) by setting the excitation and emission wavelength to 382 nm and 445 nm respectively. The last row of each 96-well plate includes six wells of background controls and six wells of reference controls. The relative enzyme activity (Activity%) regulated by specific compound was calculated according to equation (1):
F0 was the averaged fluorescence of six background controls, representing zero activity from a simulated enzyme reaction with only NAMPT but no NAM and compound; F100% was the averaged fluorescence of six reference controls, representing 100% activity from intact enzyme reaction without compound perturbation.
Compounds with Activity% less than 40% were considered as inhibitors and subjected to a secondary screen inhibition validation, in which another background control (FC0), a simulated enzyme reaction with NAMPT and compound but no NAM, was introduced to eliminate the direct and/or indirect influence from compound. At this stage, the Activity% was calculated according to equation (2): […]
For `COc1cc(OC)c(NC(=O)CCCn2nc(C)c3sc4ccccc4c3c2=O)cc1Cl` [E019-0951], the “NAMPT inhibition activity at 20 μM” value was “No (showed no NAMPT inhibition activity at 20 μM (NAMPT activity ≥40%))”. For `COc1ccc(CNC(=O)c2ccc(Cn3c(=O)c4cccn4c4cccnc43)cc2)c(OC)c1` [E524-1754], the “NAMPT inhibition activity at 20 μM” value was “No (showed no NAMPT inhibition activity at 20 μM (NAMPT activity ≥40%))”. In the case of `Cc1ccc2c(=O)cc(CSc3nnc(-c4ccccc4)n3C)[nH]c2c1C` [G751-0753], the “NAMPT inhibition activity at 20 μM” value is reported as “No (showed no NAMPT inhibition activity at 20 μM (NAMPT activity ≥40%))”. With `COc1ccc(OC)c(CNC(=O)NCc2noc3ccc(C)cc23)c1` [E569-0193] the “NAMPT inhibition activity at 20 μM” value was “No (showed no NAMPT inhibition activity at 20 μM (NAMPT activity ≥40%))”. For `Cc1nn(CCCC(=O)Nc2ccccc2C(F)(F)F)c(=O)c2c1sc1ccccc12` [E019-0923], the “NAMPT inhibition activity at 20 μM” value was “No (showed no NAMPT inhibition activity at 20 μM (NAMPT activity ≥40%))”. For `Cc1cc(C)c(NC(=O)C(C)n2nc(C)c3sc4ccccc4c3c2=O)c(C)c1` (stereo not drawn) [E019-0435], the “NAMPT inhibition activity at 20 μM” value was “No (showed no NAMPT inhibition activity at 20 μM (NAMPT activity ≥40%))”. With `CCOCCCNC(=O)c1ccc(Cn2c(=O)c3cccn3c3cccnc32)cc1` [E524-1662] the “NAMPT inhibition activity at 20 μM” value was “No (showed no NAMPT inhibition activity at 20 μM (NAMPT activity ≥40%))”. With `CCOc1ccccc1NC(=O)NCc1noc2ccc(C)cc12` [E569-0079] the “NAMPT inhibition activity at 20 μM” value was “No (showed no NAMPT inhibition activity at 20 μM (NAMPT activity ≥40%))”. In the case of `CCOc1ccc(CCNC(=O)c2ccc(Cn3c(=O)c4cccn4c4cccnc43)cc2)cc1` [E524-1767], the “NAMPT inhibition activity at 20 μM” value is reported as “No (showed no NAMPT inhibition activity at 20 μM (NAMPT activity ≥40%))”. `O=C(NCc1ccccc1Cl)c1ccc(Cn2c(=O)c3cccn3c3cccnc32)cc1` [E524-1573] was tested, and the “NAMPT inhibition activity at 20 μM” value was “Yes”. For `O=C(COc1ccc(F)cc1)Nc1ccccc1C(=O)OCc1cc(=O)n2ccsc2n1` [G357-1695], the “NAMPT inhibition activity at 20 μM” value was “No (showed no NAMPT inhibition activity at 20 μM (NAMPT activity ≥40%))”. For `O=C(Cn1c(=O)c2cccn2c2cccnc21)NCc1ccccc1F` [E524-0299], the “NAMPT inhibition activity at 20 μM” value was “No (showed no NAMPT inhibition activity at 20 μM (NAMPT activity ≥40%))”. `Cc1ccc(NC(=O)CCCn2c(=O)c3cccn3c3cccnc32)c(Cl)c1` [E524-1338] was tested, and the “NAMPT inhibition activity at 20 μM” value was “No (showed no NAMPT inhibition activity at 20 μM (NAMPT activity ≥40%))”. In the case of `CCC(C)NC(=O)c1ccc(Cn2c(=O)c3cccn3c3cccnc32)cc1` (stereo not drawn) [E524-1568], the “NAMPT inhibition activity at 20 μM” value is reported as “No (showed no NAMPT inhibition activity at 20 μM (NAMPT activity ≥40%))”. `O=C(Cn1c(=O)c2cccn2c2cccnc21)NCc1cccc(F)c1` [E524-0302] was tested, and the “NAMPT inhibition activity at 20 μM” value was “No (showed no NAMPT inhibition activity at 20 μM (NAMPT activity ≥40%))”. In the case of `Cc1cccc(OCc2ccc(-c3nc(C#N)c(NCc4cccnc4)o3)o2)c1` [D301-0252], the “NAMPT inhibition activity at 20 μM” value is reported as “No (showed no NAMPT inhibition activity at 20 μM (NAMPT activity ≥40%))”. In the case of `CN(C)CCNC(=O)c1ccc(Cn2c(=O)c3cccn3c3cccnc32)cc1` [E524-1589], the “NAMPT inhibition activity at 20 μM” value is reported as “No (showed no NAMPT inhibition activity at 20 μM (NAMPT activity ≥40%))”. In the case of `Cc1cn2c(=O)cc(COC(=O)c3cccc(NC(=O)C(C)Oc4ccccc4)c3)nc2s1` (stereo not drawn) [G357-2118], the “NAMPT inhibition activity at 20 μM” value is reported as “No (showed no NAMPT inhibition activity at 20 μM (NAMPT activity ≥40%))”. In the case of `CN(C)c1ccc(CNC(=O)c2ccc(Cn3c(=O)c4cccn4c4cccnc43)cc2)cc1` [E524-1758], the “NAMPT inhibition activity at 20 μM” value is reported as “No (showed no NAMPT inhibition activity at 20 μM (NAMPT activity ≥40%))”. `Cc1ccc(OCc2ccc(-c3nc(C#N)c(NCc4cccnc4)o3)o2)cc1` [D301-0100] was tested, and the “NAMPT inhibition activity at 20 μM” value was “No (showed no NAMPT inhibition activity at 20 μM (NAMPT activity ≥40%))”. In the case of `Cc1c(Cl)cccc1NC(=O)Cn1nc(C)c2sc3ccccc3c2c1=O` [E019-0120], the “NAMPT inhibition activity at 20 μM” value is reported as “No (showed no NAMPT inhibition activity at 20 μM (NAMPT activity ≥40%))”.
